Results as given in patent US9738648B2, “Pyridines, pyrimidines, and pyrazines, as BTK inhibitors and uses thereof” (Merck Patent GmbH, priority 2013, dated 2017).

What was measured:
full-length human BTK = biological target: T1, full-length human BTK (Homo sapiens, UniProt Q06187); experiment: BTK IC50 Enzyme Assay (Assay A), microfluidic off-chip mobility shift kinase assay; format: biochemical; conditions: kinKDR peptide substrate, 90 min at 27° C.
T1 construct: 2.5× stocks of full-length human BTK (08-080) from CarnaBio USA, Inc; purchased CarnaBio USA, Inc., Natick, Mass; 08-080
T1 sequence (Q06187 whole entry): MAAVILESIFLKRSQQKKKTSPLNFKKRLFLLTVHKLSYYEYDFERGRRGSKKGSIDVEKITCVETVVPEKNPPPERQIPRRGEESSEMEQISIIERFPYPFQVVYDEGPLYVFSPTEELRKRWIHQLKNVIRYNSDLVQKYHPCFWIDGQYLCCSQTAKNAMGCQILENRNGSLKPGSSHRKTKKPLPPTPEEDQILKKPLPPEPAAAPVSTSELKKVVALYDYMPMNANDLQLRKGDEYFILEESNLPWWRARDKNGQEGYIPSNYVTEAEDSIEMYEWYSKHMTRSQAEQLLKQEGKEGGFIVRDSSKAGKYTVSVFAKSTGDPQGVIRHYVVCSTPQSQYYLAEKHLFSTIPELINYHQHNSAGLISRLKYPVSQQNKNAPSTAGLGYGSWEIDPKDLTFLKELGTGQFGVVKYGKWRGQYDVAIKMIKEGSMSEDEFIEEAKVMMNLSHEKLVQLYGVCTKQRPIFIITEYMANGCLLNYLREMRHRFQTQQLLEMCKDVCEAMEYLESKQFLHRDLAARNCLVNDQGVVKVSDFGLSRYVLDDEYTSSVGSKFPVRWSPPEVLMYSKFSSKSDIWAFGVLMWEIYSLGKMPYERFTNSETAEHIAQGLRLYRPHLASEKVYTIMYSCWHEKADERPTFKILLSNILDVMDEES
Protocol: BTK IC50 Enzyme Assay (Assay A)
The following describes a microfluidic, off-chip mobility shift kinase assay used to measure inherent potency of compounds against BTK enzyme.
2.5× stocks of full-length human BTK (08-080) from CarnaBio USA, Inc., Natick, Mass., 1.6×ATP and appropriate kinKDR peptide substrate (FITC-AHA-EEPLYWSFPAKKK10 NH2) were prepared in kinase reaction buffer consisting of 25 mM MgCl2, 0.015% Brij-35 (30%), 100 mM Hepes, pH 7.5, and 10 mM DTT.
5 uL of enzyme buffer and 7.5 uL of ATP/kinKDR peptide substrate mix were added to Matrix (#115304) 384-well, sterile, polypropylene plates (Thermo Fisher Scientific, 15 Hudson, N.H.) with 125 nL of serially diluted compounds prepared in 100% DMSO, and incubated for 90 min. at 27° C. Following the incubation period, reactions were stopped by adding 60 uL stop buffer consisting of 100 mM Hepes, pH 7.5, 0.015% Brij-35 (30%), 0.277% Coating Reagent #3 (Caliper Life Sciences, Mountain View, Calif.), 5% DMSO. Stopped reactions were monitored at −2 PSI, −3000 V/−700 V in a LabChip 3000 plate 20 reader from Caliper Life Sciences, a PerkinElmer Company (Hopkinton, Mass.), and the activity was measured by off-chip mobility shift assay measuring the charge/mass difference between substrate and product resulting from peptide phosphorilation. IC50 and efficacy were determined by plotting log [Inhibitor] vs. % Activity in GeneData Screener (Basel, Switzerland).

[1] = system: anti-IgM-induced expression of CD69 in freshly isolated human peripheral blood mononuclear cells (PBMCs); experiment: Assay B: inhibition of anti-IgM-induced expression of CD69 on CD19 positive cells (B cells) in human PBMCs; format: cell-based; conditions: PBMC, 1 h pre-treatment, overnight anti-human IgM stimulation, CD69 on CD19 positive cells by flow cytometry, read-out: Assay B (mol/L (M))
Protocol: Btk is critical for mediating the signalling of B cell antigen receptor (BCR) after anti-IgM stimulation. Based on this principle, a functional cell-based assay was established to determine the potency of compounds at inhibiting anti-IgM-induced expression of CD69, a downstream BCR signalling event, in freshly isolated human peripheral blood mononuclear cells (PBMCs). In the assay, a 90 μl PBMC suspension containing 2.5×10^5 cells was pre-treated with 10 μl of test compound at various concentrations for an hour, and then incubated overnight (approximately 16-18 hours) with 5 μl 420 μg/ml affiniPure F(ab′)2 fragment goat anti-human IgM Fc fragment per well (Dianova, Cat. No.: 109-006-129). After the incubation, the cells were washed and immunostained with an APC labelled mouse anti-human CD69 (BD Biosciences; clone: FN50), a PerCP-Cy5.5 labelled mouse anti-human CD19 (BD Biosciences; clone: SJ25C1) and a FITC-labelled mouse anti-human CD3 (BD Biosciences; clone: HIT3a), and fixed for flow cytometric analysis of CD69 expression on CD19 positive cells (B cells). The percentage of CD69 expressing CD19 positive cells was plotted against the concentrations of test compounds to obtain a concentration response curve, and calculate an IC50 value as a measure of the potency of test compounds in the assay.

SMILES | IC50 (full-length human BTK) [nM] | IC50 [1] [M]
C=CC(=O)N1CC(n2ccc3ncnc(Oc4ccc(Oc5ccccc5)cc4)c32)C1 [Compound 3, 1-(3-(4-(4-phenoxyphenoxy)-5H-pyrrolo[3,2-d]pyrimidin-5-yl)azetidin-1-yl)prop-2-en-1-one] | < 100 | < 1e-07
O=C(CCCCCNc1ccc([N+](=O)[O-])c2nonc12)NCCN1CCN(C/C=C/C(=O)N2CC(n3ccc4ncnc(Oc5ccc(Oc6ccccc6)cc5)c43)C2)CC1 [Compound 31, (E)-6-((7-nitrobenzo[c][1,2,5]oxadiazol-4-yl)amino)-N-(2-(4-(4-oxo-4-(3-(4-(4-phenoxyphenoxy)-5H-pyrrolo[3,2-d]pyrimidin-5-yl)azetidin-1-yl)but-2-en-1-yl)piperazin-1-yl)ethyl)hexanamide] | < 100 | 1e-06 to 5e-06
C=CC(=O)N[C@H]1C[C@@H](n2ccc3ncnc(Oc4ccc(Oc5ccccc5)cc4)c32)C1 [Compound 10, N-(cis-3-(4-(4-phenoxyphenoxy)-5H-pyrrolo[3,2-d]pyrimidin-5-yl)cyclobutyl)acrylamide] | < 100 | 1e-07 to 1e-06
CN(C)C/C=C/C(=O)N1CC(n2ccc3ncc(-c4ccc(Oc5ccccc5)cc4)cc32)C1 [Compound 13, (E)-4-(dimethylamino)-1-(3-(6-(4-phenoxyphenyl)-1H-pyrrolo[3,2-b]pyridin-1-yl)azetidin-1-yl)but-2-en-1-one] | < 100 | 1e-07 to 1e-06
N#CN1CC[C@H](n2ccc3ncnc(Oc4ccc(Oc5ccccc5)cc4)c32)C1 [Compound 72, (3S)-3-[4-(4-phenoxyphenoxy)-5H-pyrrolo[3,2-d]pyrimidin-5-yl]pyrrolidine-1-carbonitrile] | < 100 | 1e-07 to 1e-06
N#CN1CCC(n2ccc3ncnc(Oc4ccc(Oc5ccccc5)cc4)c32)C1 (stereo not drawn) [Compound 60, 3-[4-(4-phenoxyphenoxy)-5H-pyrrolo[3,2-d]pyrimidin-5-yl]pyrrolidine-1-carbonitrile] | < 100 | 1e-07 to 1e-06
N#CN1CCCC(n2ccc3ncnc(Oc4ccc(Oc5ccccc5)cc4)c32)C1 (stereo not drawn) [Compound 64, 3-[4-(4-phenoxyphenoxy)-5H-pyrrolo[3,2-d]pyrimidin-5-yl]piperidine-1-carbonitrile] | 100 to 1000 | –
N#CN1CC[C@@H](n2ccc3ncnc(Oc4ccc(Oc5ccccc5)cc4)c32)C1 [Compound 71, (3R)-3-[4-(4-phenoxyphenoxy)-5H-pyrrolo[3,2-d]pyrimidin-5-yl]pyrrolidine-1-carbonitrile] | > 5000 | –
CC1=CC(C)=[N+]2C1=C(c1ccc(NC(=S)NCCOCCOCCOCCOCCC(=O)NCCN3CCN(C/C=C/C(=O)N4CCC(n5ccc6ncnc(Oc7ccc(Oc8ccccc8)cc7)c65)CC4)CC3)cc1)c1c(C)cc(C)n1[B-]2(F)F [Compound 74, (E)-1-((4-(5,5-difluoro-1,3,7,9-tetramethyl-5H-414,514-dipyrrolo[1,2-c:2′,1′-f][1,3,2]diazaborinin-10-yl)phenyl)amino)-N-(2-(4-(4-oxo-4-(4-(4-(4-phenoxyphenoxy)-5H-pyrrolo[3,2-d]pyrimidin-5-yl)piperidin-1-yl)but-2-en-1-yl)piperazin-1-yl)ethyl)-1-thioxo-5,8,11,14-tetraoxa-2-azaheptadecan-17-amide] | 100 to 1000 | –
